Assay results taken from publication PMC7601404, “Enzymes Involved in the Biosynthesis of Arginine from Ornithine in Maritime Pine (Pinus pinaster Ait.)” (Plants, 2020).
Where two headings read alike, the source gives them in different places. Values belong to the molecule of their own block, whether it stands above or below them.

Legend:
PpASL [1] = tested on: T1, PpASL; test: fumarate absorbance at […] nm; type: biochemical, Pinus pinaster; settings: 50 mM Tris-HCl pH 8, 25 °C
T1 construct: gene ASL; mature form without predicted chloroplast transit peptide (TargetP-2.0, WoLF PSORT); N-terminal 6xHis (pDEST17), tag kept; E. coli; cloned cDNA 1398 nt

[2] = biological target: recombinant Pinus pinaster argininosuccinate synthetase (PpASSY) (Pinus pinaster); test: SEC; desalted purified recombinant enzymes loaded separately on an ENrich SEC 650 column calibrated with protein standards (29-669 kDa); holoenzyme mass from the partition coefficient (Kav); elution followed at 280 nm and confirmed by western blot
PpASSY [3] = tested on: T2, PpASSY; test: PPi release, molybdate/ascorbate assay, […] nm; type: biochemical, Pinus pinaster; settings: 50 mM Tris-HCl pH 8, 25 °C, 3 mM ATP, 10 mM MgCl2
T2 construct: gene ASSY; mature form without predicted chloroplast transit peptide (TargetP-2.0, WoLF PSORT); N-terminal 6xHis (pDEST17), tag kept; E. coli; cloned cDNA 1218 nt

PpOTC [4] = tested on: T3, PpOTC; test: phosphomolybdate Pi release assay, […] nm; type: biochemical, Pinus pinaster; settings: 50 mM Tris-HCl pH 8.0, 25 °C, ornithine + carbamoyl-P above Km
T3 construct: gene OTC; mature form without predicted chloroplast transit peptide (TargetP-2.0, WoLF PSORT); N-terminal 6xHis (pDEST17), tag kept; E. coli; cloned cDNA 984 nt

[5] = biological target: recombinant Pinus pinaster argininosuccinate lyase (PpASL) (Pinus pinaster); test: SEC; desalted purified recombinant enzymes loaded separately on an ENrich SEC 650 column calibrated with protein standards (29-669 kDa); holoenzyme mass from the partition coefficient (Kav); elution followed at 280 nm and confirmed by western blot
PpASL [6] = tested on: T1, PpASL; test: fumarate absorbance at […] nm; type: biochemical, Pinus pinaster; settings: 50 mM Tris-HCl pH 8, 25 °C, argininosuccinate above Km
[7] = biological target: recombinant Pinus pinaster ornithine transcarbamylase (PpOTC) (Pinus pinaster); test: SEC; desalted purified recombinant enzymes loaded separately on an ENrich SEC 650 column calibrated with protein standards (29-669 kDa); holoenzyme mass from the partition coefficient (Kav); elution followed at 280 nm and confirmed by western blot
PpOTC [8] = tested on: T3, PpOTC; test: phosphomolybdate Pi release assay, […] nm; allosteric sigmoidal fit; type: biochemical, Pinus pinaster; settings: 50 mM Tris-HCl pH 8.0, 25 °C, read-out: S0.5
PpASSY [9] = tested on: T2, PpASSY; test: PPi release, molybdate/ascorbate assay, […] nm; type: biochemical, Pinus pinaster; settings: 50 mM Tris-HCl pH 8, 25 °C, citrulline, aspartate, 3 mM ATP, 10 mM MgCl2, substrates above Km; partial inhibition

Molecule: N=C(NCCC[C@H](N)C(=O)O)N[C@@H](CC(=O)O)C(=O)O [argininosuccinate]
Km (PpASL [1]): 220 ± 30 µM

Molecule: recombinant Pinus pinaster argininosuccinate synthetase (PpASSY) (enzyme)
stoichiometry N [2]: 4

Molecule: NC(=O)NCCC[C@H](N)C(=O)O [citrulline]
Km (PpASSY [3]; 2 mM aspartate): 120 ± 30 µM

Molecule: recombinant Pinus pinaster argininosuccinate lyase (PpASL) (enzyme)
stoichiometry N [5]: 4

Molecule: NCCC[C@H](N)C(=O)O [ornithine]
Km (PpOTC [8]; carbamoyl-P co-substrate (5 mM), positive cooperativity): 1280 ± 160 µM

Molecule: N[C@@H](CC(=O)O)C(=O)O [aspartate]
Km (PpASSY [3]; 2 mM citrulline): 120 ± 50 µM

Molecule: NC(=O)OP(=O)(O)O [carbamoyl-P]
Km (PpOTC [8]; ornithine co-substrate, negative cooperativity): 3480 ± 1400 µM

Molecule: N=C(N)NCCC[C@H](N)C(=O)O [arginine]
IC50 (PpOTC [4]; negative allosteric): 10.3 mM
IC50 (PpASSY [9]): 1.94 mM

Further lines, results first:

IC50 (PpOTC [4]): 7.19 mM
Molecule: CC(C)[C@H](N)C(=O)O [valine]

IC50 (PpASL [6]): 19.2 mM
Molecule: NCCCNCCCCNCCCN [spermine]

stoichiometry N [7]: 3
Molecule: recombinant Pinus pinaster ornithine transcarbamylase (PpOTC) (enzyme)

IC50 (PpASL [6]): 4.97 mM
Molecule: NCCCCNCCCN [spermidine]
